# Measurements published in patent US12465050B2, “Compositions comprising a pyridine carboxylate herbicide and protoporphyrinogen oxidase (protox) inhibitor herbicides” (priority 2018, dated 2025).
# Tests used:
# Type in all cases: in vivo
# [1] = test system: Rumex obtusifolius (broad-leaf dock); assay: Greenhouse postemergence herbicidal effect on RUMOB
# Description: (§1) Greenhouse Trial Methodology—Evaluation of Postemergence Herbicidal Effect
# (§2) Seeds of the desired test plant species were planted in a 90:10% v/v (volume/volume) mixture of PRO-MIX® BX (Premier Tech Horticulture, Quakertown, Pa., USA) and PROFILE® GREENS GRADE™ (Profile Products LLC, Buffalo Grove, Ill., USA) planting mixture, which typically has a pH of 5.2 to 6.2 and an organic matter content of at least 50 percent, in plastic pots with a surface area of 103.2 square centimeters (cm^2). In some aspects or embodiments, to help ensure good germination and healthy plants, a fungicide treatment and/or other chemical or physical treatment was applied. The plants were grown for 7-36 days (d) in a greenhouse with an approximate 14-hour (h) photoperiod which was maintained at about 23° C. during the day and 22° C. during the night. Nutrients and water were added on a regular basis and supplemental lighting was provided with overhead metal halide 1000-Watt lamps as necessary. The plants were employed for testing when they reached the second or third true leaf stage.
# (§3) Emulsifiable concentrates of each of each pyridine carboxylate herbicide (Compound A or Compound B) were prepared at 100 grams acid equivalent per liter (g ae/L). The emulsifiable concentrates also included a safener, cloquintocet mexyl, at 120 grams active ingredient per liter (g ai/L). An aliquot of each emulsifiable concentrate was placed in a 25 mL glass vial and diluted with an aqueous mixture of 1.25% (v/v) ACTIROB® B esterified rapeseed oil (Bayer Crop Science, Research Triangle Park, N.C., USA) or MSO® Concentrate with LECI-TECH® methylated soybean oil (Loveland Products, Loveland, Colo., USA) to obtain concentrated stock solutions at the highest application rate for each herbicide, based upon a 12 milliliter (mL) application volume at a rate of 187 liters per hectare (L/ha). The concentrated stock solutions were further diluted with an aqueous mixture of 1.25% v/v ACTIROB® B or MSO® Concentrate with LECI-TECH® to obtain stock solutions at reduced application rates for each herbicide. Spray solutions of the herbicide combinations (Compound A or Compound B plus PROTOX inhibitor herbicide) were prepared by adding weighed amounts or aliquots of the PROTOX inhibitor herbicides to the stock solutions of Compound A or Compound B to form 12-mL spray solutions in two-way combinations.
# (§4) The spray solutions were applied to the plant material with an overhead Mandel track sprayer equipped with 8002E nozzles calibrated to deliver 187 L/ha over an application area of 0.503 square meters (m^2) at a spray height of 18 inches (43 centimeters (cm)) above the average plant canopy. Control plants were sprayed in the same manner with the solvent blank. All pyridine carboxylate herbicide (component a) application rates are given as “g ae/ha” and all PROTOX inhibitor herbicide (component b) application rates are given as “g ai/ha.”
# (§5) The treated plants and control plants were placed in a greenhouse as described above and watered by sub-irrigation to prevent wash-off of the test compounds. After 20-22 d, the condition of the test plants as compared with that of the control plants was determined visually and scored on a scale of 0 to 100 percent where 0 corresponds to no injury and 100 corresponds to complete kill.
# [2] = test system: Cirsium arvense (Canadian thistle); assay: Greenhouse postemergence herbicidal effect on CIRAR
# Description: as §1, §2, §3, §4, §5
# [3] = test system: Brassica napus (spring rape); assay: Greenhouse postemergence herbicidal effect on BRSNN
# Description: as §1, §2, §3, §4, §5
# [4] = test system: Setaria faberi (giant foxtail); assay: Greenhouse postemergence herbicidal effect on SETFA
# Description: as §1, §2, §3, §4, §5
# Avena fatua (wild oat) = assay: Greenhouse postemergence herbicidal effect on AVEFA
# Description: as §1, §2
# (§6) Emulsifiable concentrates of each of each pyridine carboxylate herbicide (Compound A or Compound B) were prepared at 100 grams acid equivalent per liter (g ae/L). The emulsifiable concentrates also included a safener, cloquintocet mexyl, at 120 grams active ingredient per liter (g ai/L). […]
# as §5
# [5] = test system: Digitaria sanguinalis (large crabgrass); assay: Greenhouse postemergence herbicidal effect on DIGSA
# Description: as §1, §2, §6, §5
# [6] = test system: Abutilon theophrasti (velvetleaf); assay: Greenhouse postemergence herbicidal effect on ABUTH
# Description: as §1, §2, §6, §5
# [7] = test system: Amaranthus retroflexus (pigweed); assay: Greenhouse postemergence herbicidal effect on AMARE
# Description: as §1, §2, §3, §4, §5
# [8] = test system: Hordeum vulgare (spring barley); assay: Greenhouse postemergence phytotoxicity on crop HORVS
# Description: as §1, §2, §3, §4, §5
# [9] = test system: Cyanus segetum (cornflower); assay: Greenhouse postemergence herbicidal effect on CENCY
# Description: as §1, §2
# as §3, with “combinations. […]” for “combinations.”
# as §5
# [10] = test system: Viola arvensis (field violet); assay: Greenhouse postemergence herbicidal effect on VIOAR
# Description: as §1, §2
# as §3, with “combinations. […]” for “combinations.”
# as §5
# [11] = test system: Anthemis arvensis (corn chamomile); assay: Greenhouse postemergence herbicidal effect on ANTAR
# Description: as §1, §2
# as §3, with “combinations. […]” for “combinations.”
# as §5
# [12] = test system: Matricaria discoidea (pineapple weed); assay: Greenhouse postemergence herbicidal effect on MATMT
# Description: as §1, §2
# as §3, with “combinations. […]” for “combinations.”
# as §5
# [13] = test system: Veronica persica (Persian speedwell); assay: Greenhouse postemergence herbicidal effect on VERPE
# Description: as §1, §2
# as §3, with “combinations. […]” for “combinations.”
# as §5
# [14] = test system: Papaver rhoeas (common poppy); assay: Greenhouse postemergence herbicidal effect on PAPRH
# Description: as §1, §2
# as §3, with “combinations. […]” for “combinations.”
# as §5
# [15] = test system: Triticum aestivum (winter wheat); assay: Greenhouse postemergence phytotoxicity on crop TRZAW
# Description: as §1, §2
# as §3, with “combinations. […]” for “combinations.”
# as §5
# [16] = Compound A 7.5, Saflufenacil 0 g/ha
# [17] = Compound A 10, Saflufenacil 0 g/ha
# [18] = Compound A 7.5, Oxyfluorfen 0 g/ha
# [19] = Compound A 7.5, Pyraflufen-ethyl 0 g/ha
# [20] = Compound A 10, Oxyfluorfen 0 g/ha
# [21] = Compound A 10, Pyraflufen-ethyl 0 g/ha
# [22] = Compound A 15, Oxyfluorfen 0 g/ha
# [23] = Compound A 7.5, Pyraclonil 0 g/ha
# [24] = Compound A 10, Pyraclonil 0 g/ha
compound,measurement,setting,value
"N#CCOC(=O)c1nc(-c2ccc3cc[nH]c3c2F)c(F)c(N)c1Cl [Compound A, cyanomethyl 4-amino-3-chloro-5-fluoro-6-(7-fluoro-1H-indol-6-yl)pyridine-2-carboxylate]","% visual injury, Obs","[1]; Compound A 7.5, Bifenox 0 g/ha",13%
same,"% visual injury, Obs",[1]; [16],20%
same,"% visual injury, Obs","[1]; Compound A 10, Bifenox 0 g/ha",8%
same,"% visual injury, Obs",[1]; [17],13%
same,"% visual injury, Obs","[2]; Compound A 7.5, Bifenox 0 g/ha",70%
same,"% visual injury, Obs",[2]; [18],50%
same,"% visual injury, Obs",[2]; [19],40%
same,"% visual injury, Obs","[2]; Compound A 10, Bifenox 0 g/ha",68%
same,"% visual injury, Obs",[2]; [20],63%
same,"% visual injury, Obs",[2]; [21],55%
same,"% visual injury, Obs",[2]; [22],63%
same,"% visual injury, Obs","[3]; Compound A 7.5, Bifenox 0 g/ha",23%
same,"% visual injury, Obs",[3]; [23],55%
same,"% visual injury, Obs",[3]; [16],65%
same,"% visual injury, Obs","[3]; Compound A 10, Bifenox 0 g/ha",45%
same,"% visual injury, Obs",[3]; [24],60%
same,"% visual injury, Obs",[3]; [17],65%
same,"% visual injury, Obs","[4]; Compound A 7.5, Bifenox 0 g/ha",60%
same,"% visual injury, Obs",[4]; [16],78%
same,"% visual injury, Obs","[4]; Compound A 10, Bifenox 0 g/ha",78%
same,"% visual injury, Obs",[4]; [17],80%
same,"% visual injury, Obs","Avena fatua (wild oat); Compound A 7.5, Bifenox 0 g/ha",0%
same,"% visual injury, Obs","Avena fatua (wild oat); Compound A 10, Bifenox 0 g/ha",0%
same,"% visual injury, Obs","[5]; Compound A 7.5, Bifenox 0 g/ha",13%
same,"% visual injury, Obs","[5]; Compound A 10, Bifenox 0 g/ha",25%
same,"% visual injury, Obs",[6]; [16],68%
same,"% visual injury, Obs",[6]; [17],80%
same,"% visual injury, Obs",[7]; [19],90%
same,"% visual injury, Obs",[7]; [16],88%
same,"% visual injury, Obs",[7]; [21],85%
same,"% visual injury, Obs",[7]; [17],88%
same,"% visual injury, Obs","[8]; Compound A 7.5, Carfentrazone-ethyl 0 g/ha",8%
same,"% visual injury, Obs",[8]; [18],0%
same,"% visual injury, Obs",[8]; [23],8%
same,"% visual injury, Obs",[8]; [19],0%
same,"% visual injury, Obs","[8]; Compound A 10, Carfentrazone-ethyl 0 g/ha",0%
same,"% visual injury, Obs",[8]; [20],0%
same,"% visual injury, Obs",[8]; [24],0%
same,"% visual injury, Obs",[8]; [21],0%
same,"% visual injury, Obs",[8]; [22],0%
same,"% visual injury, Obs",[9]; [18],75%
same,"% visual injury, Obs",[9]; [20],78%
same,"% visual injury, Obs",[9]; [22],80%
same,"% visual injury, Obs",[10]; [18],10%
same,"% visual injury, Obs",[10]; [20],13%
same,"% visual injury, Obs",[10]; [22],10%
same,"% visual injury, Obs",[11]; [18],68%
same,"% visual injury, Obs",[11]; [20],70%
same,"% visual injury, Obs",[11]; [22],88%
same,"% visual injury, Obs",[12]; [18],20%
same,"% visual injury, Obs",[12]; [20],20%
same,"% visual injury, Obs",[12]; [22],63%
same,"% visual injury, Obs",[13]; [18],78%
same,"% visual injury, Obs",[13]; [20],90%
same,"% visual injury, Obs",[13]; [22],93%
same,"% visual injury, Obs",[14]; [18],100%
same,"% visual injury, Obs",[14]; [20],99%
same,"% visual injury, Obs",[14]; [22],100%
same,"% visual injury, Obs",[15]; [18],0%
same,"% visual injury, Obs",[15]; [20],0%
same,"% visual injury, Obs",[15]; [22],0%
